Results from ChEMBL document CHEMBL1201862, “PubChem BioAssay data set” (2004).
Active and inactive are the calls of the source.

Key:
[1] = target: T1, Short transient receptor potential channel 4 (Mus musculus, UniProt Q9QUQ5); assay: potentiation of DAMGO-evoked TRPC4 calcium signal – cell-based, HEK293 TRPC4/mu-opioid, Fluo-4 calcium, EC20 DAMGO, dose response (AID 434941); assay type: functional
T1 sequence (Q9QUQ5 whole entry): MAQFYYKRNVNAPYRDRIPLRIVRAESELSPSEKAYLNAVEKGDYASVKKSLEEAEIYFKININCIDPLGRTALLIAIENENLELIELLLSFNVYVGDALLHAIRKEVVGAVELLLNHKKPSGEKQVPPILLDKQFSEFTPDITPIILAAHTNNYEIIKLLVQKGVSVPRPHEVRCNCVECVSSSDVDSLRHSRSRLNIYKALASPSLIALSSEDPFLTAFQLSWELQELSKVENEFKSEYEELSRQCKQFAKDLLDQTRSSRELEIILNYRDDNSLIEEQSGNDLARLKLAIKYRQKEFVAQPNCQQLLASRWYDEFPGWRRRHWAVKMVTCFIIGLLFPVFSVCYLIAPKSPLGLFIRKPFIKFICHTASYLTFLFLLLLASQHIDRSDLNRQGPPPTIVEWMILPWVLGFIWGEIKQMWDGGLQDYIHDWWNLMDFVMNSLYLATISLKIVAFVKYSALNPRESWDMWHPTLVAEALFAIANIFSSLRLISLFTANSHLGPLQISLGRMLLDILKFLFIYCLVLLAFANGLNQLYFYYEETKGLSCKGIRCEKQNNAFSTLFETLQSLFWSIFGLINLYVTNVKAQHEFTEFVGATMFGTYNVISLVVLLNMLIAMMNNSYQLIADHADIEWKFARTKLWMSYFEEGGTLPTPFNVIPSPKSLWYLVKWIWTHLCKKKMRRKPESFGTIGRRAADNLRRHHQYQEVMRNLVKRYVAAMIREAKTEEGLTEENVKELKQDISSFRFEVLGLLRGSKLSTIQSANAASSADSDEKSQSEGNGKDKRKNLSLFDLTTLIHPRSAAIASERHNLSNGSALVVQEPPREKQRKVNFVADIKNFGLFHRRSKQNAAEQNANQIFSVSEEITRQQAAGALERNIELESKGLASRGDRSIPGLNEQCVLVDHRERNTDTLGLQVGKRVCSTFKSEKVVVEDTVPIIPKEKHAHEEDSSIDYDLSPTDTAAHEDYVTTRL

[2] = test system: HEK293; assay: inhibition of NOD1-driven NF-kB reporter – cell-based, luminescence, uHTS, primary screen (AID 1578); assay type: functional; conditions: Homo sapiens
[3] = test system: HEK293; assay: cells; conditions: Homo sapiens
[4] = target: Tumor necrosis factor (Homo sapiens, UniProt P01375); assay: analog potency on TNFa NF-kB signaling – cell-based, revised, SAR follow-up (AID 2337); assay type: functional
[5] = target: T2, Nucleotide-binding oligomerization domain-containing protein 1 (Homo sapiens, UniProt Q9Y239); assay: blockers of NOD1 pathway activity – revised, SAR follow-up (AID 2333); assay type: functional
T2 sequence (Q9Y239 whole entry): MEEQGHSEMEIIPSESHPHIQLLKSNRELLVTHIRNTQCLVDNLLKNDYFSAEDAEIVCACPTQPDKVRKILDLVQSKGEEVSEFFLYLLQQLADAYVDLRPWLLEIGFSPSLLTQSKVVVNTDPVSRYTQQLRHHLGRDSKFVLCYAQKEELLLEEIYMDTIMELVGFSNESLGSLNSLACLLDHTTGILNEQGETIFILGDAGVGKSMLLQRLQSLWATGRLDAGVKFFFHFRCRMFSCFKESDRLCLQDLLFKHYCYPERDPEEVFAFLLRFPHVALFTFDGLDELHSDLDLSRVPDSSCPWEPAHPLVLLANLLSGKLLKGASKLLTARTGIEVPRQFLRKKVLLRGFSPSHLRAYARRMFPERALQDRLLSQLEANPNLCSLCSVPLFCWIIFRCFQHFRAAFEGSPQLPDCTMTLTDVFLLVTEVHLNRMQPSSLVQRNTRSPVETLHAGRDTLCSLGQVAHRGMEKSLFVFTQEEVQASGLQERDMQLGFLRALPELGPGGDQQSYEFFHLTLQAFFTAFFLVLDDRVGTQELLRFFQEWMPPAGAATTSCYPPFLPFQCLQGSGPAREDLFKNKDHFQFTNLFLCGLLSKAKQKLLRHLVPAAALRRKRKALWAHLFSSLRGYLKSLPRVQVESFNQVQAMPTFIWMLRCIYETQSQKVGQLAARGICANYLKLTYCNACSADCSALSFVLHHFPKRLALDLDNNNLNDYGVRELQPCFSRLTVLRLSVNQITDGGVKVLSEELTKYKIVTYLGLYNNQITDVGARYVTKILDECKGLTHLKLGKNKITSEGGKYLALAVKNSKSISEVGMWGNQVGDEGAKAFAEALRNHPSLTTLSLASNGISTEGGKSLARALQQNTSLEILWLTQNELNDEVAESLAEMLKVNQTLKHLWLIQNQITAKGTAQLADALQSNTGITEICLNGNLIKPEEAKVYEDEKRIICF

[6] = test system: HEK293; assay: NOD2 signaling inhibitors in MDP-stimulated cells, cell-based, uHTS, luminescence (AID 2001); assay type: functional; conditions: Homo sapiens
[7] = target: Nucleotide-binding oligomerization domain-containing protein 2 (Homo sapiens, UniProt Q9HC29); assay: PubChem AID 2334; assay type: functional
[8] = test system: HEK293; assay: cells; assay type: functional, cell-based; conditions: Homo sapiens
[9] = test system: HEK293; assay: cells; assay type: functional, cell-based; conditions: Homo sapiens; remark: listed apart in the source
[10] = A Cell Based Secondary Assay To Explore Cytotoxicity of Compounds that Sensitize Mycobacterium Tuberculosis to Beta-Lactam Antibiotics.; assay type: functional
[11] = target: CAAX prenyl protease 2 (Saccharomyces cerevisiae S288c, UniProt Q03530); assay type: biochemical
[12] = target: T3, fMet-Leu-Phe receptor (Homo sapiens, UniProt P21462); assay: formyl peptide receptor binders – dose response (AID 519); assay type: functional
T3 sequence (P21462 whole entry): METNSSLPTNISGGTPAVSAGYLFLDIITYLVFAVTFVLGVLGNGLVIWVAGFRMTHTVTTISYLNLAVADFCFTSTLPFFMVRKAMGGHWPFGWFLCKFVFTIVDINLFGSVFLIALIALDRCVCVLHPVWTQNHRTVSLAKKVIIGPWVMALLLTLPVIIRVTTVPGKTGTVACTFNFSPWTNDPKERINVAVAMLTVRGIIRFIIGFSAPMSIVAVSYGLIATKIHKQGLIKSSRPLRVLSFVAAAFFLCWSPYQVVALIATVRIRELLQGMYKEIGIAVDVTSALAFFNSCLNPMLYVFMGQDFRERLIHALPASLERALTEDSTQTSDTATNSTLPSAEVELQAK

[13] = target: Trypsin (Sus scrofa, UniProt P00761); assay: trypsin protease activity blockade – biochemical, quenched peptide fluorescence, cherry-pick, selectivity assay for Rce1 protease inhibitor project, dose response (AID 488789)
[14] = cells; assay type: functional
[15] = target: Hexokinase HKDC1 (Homo sapiens, UniProt Q2TB90); assay: inhibition of HKDC1 glucose phosphorylation – biochemical, W721R variant, dose response (AID 504729); assay type: functional
[16] = test system: Vero; assay: viability of Vero cells under compound – cytotoxicity control for flavivirus capping enzyme inhibitors (AID 588742); assay type: functional; conditions: Chlorocebus sabaeus
[17] = target: T4, Corticotropin-releasing factor receptor 2/Corticotropin-releasing factor-binding protein (Homo sapiens, UniProt P24387+Q13324); assay: activators of CRF receptor 2 with binding protein – uHTS hits, confirmation (AID 602473); assay type: functional; conditions: read-out: EC50_Mean
T4 sequence (Q13324 whole entry): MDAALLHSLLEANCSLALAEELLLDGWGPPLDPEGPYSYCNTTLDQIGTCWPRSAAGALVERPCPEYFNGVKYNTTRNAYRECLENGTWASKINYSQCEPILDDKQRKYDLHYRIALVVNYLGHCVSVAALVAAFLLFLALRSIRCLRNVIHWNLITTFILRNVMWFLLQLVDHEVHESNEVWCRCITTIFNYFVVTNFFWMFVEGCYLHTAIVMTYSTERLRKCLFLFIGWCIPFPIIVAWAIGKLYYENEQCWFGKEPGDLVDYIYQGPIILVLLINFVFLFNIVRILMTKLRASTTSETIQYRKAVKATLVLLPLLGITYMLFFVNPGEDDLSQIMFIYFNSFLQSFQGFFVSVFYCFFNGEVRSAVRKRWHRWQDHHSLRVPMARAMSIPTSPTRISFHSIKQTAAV
T4 sequence (P24387 whole entry): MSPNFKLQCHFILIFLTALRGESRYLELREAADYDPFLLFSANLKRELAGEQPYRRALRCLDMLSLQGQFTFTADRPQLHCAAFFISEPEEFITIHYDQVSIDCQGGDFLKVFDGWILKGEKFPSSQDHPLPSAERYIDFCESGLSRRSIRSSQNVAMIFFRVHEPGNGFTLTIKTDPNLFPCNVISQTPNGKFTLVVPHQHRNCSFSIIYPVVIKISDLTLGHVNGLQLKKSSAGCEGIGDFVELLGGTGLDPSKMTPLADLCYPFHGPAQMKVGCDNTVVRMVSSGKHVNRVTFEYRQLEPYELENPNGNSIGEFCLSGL

[18] = target: Genome polyprotein (dengue virus type 2, UniProt P29990); assay: flavivirus cap methylation enzyme inhibition – biochemical, confirmation dose response, primary screen (AID 588689); assay type: functional
[19] = target: G-protein coupled receptor 35 (Homo sapiens, UniProt Q9HC97); assay: inhibition of zaprinast-stimulated GPR35 beta-arrestin translocation – imaging, U2OS, beta-arrestin-GFP, zaprinast agonist, primary screen (AID 2058); assay type: functional;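 further: antagonist potency meaning inhibition of agonist-induced arrestin redistribution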
[20] = target: T5, Endoribonuclease toxin MazF (Escherichia coli K-12, UniProt P0AE70); assay: activation of MazEF endoribonuclease cleavage – biochemical, fluorescence, single-stranded RNA substrate, uHTS hits, dose response (AID 588481); assay type: functional
T5 sequence (P0AE70 whole entry): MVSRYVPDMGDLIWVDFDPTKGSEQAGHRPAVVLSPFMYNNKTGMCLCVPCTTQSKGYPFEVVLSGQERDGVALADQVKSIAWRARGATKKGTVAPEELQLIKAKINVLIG

[21] = target: Large T antigen (Simian virus 40, UniProt P03070); assay type: functional, Betapolyomavirus macacae;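 further: Confirmatory-stage PubChem screen for compounds that inhibit SV40 T antigen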
[22] = target: Nonstructural protein 1 (Influenza A virus, UniProt Q194T2); assay type: functional, Influenza A virus (A/California/07/2009(H1N1))
[23] = target: T5, Endoribonuclease toxin MazF; assay: substrate-only fluorescence increase artefacts – biochemical, single-stranded RNase substrate, counter-screen for MazEF activator project, dose response (AID 588502); assay type: functional
[24] = target: G-protein coupled receptor 55 (Homo sapiens, UniProt Q9Y2T6); assay: inhibition of LPI-stimulated GPR55 beta-arrestin translocation – imaging, U2OS, beta-arrestin-GFP, LPI agonist, primary screen (AID 2013); assay type: functional;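 further: antagonist potency measured as reduced agonist-driven arrestin aggregation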
[25] = target: T6, Kappa-type opioid receptor (Homo sapiens, UniProt P41145); assay: SAR analysis of small molecule agonists of the kappa opioid receptor via a luminescent beta-arrestin assay - Set 3. [Related pubchem assays (depositor defined):AID1777, AID1785, AID1786, AID1966, AID2133, AID2136, AID2284, AID2500]; assay type: functional
[26] = target: T6, Kappa-type opioid receptor; assay: kappa opioid receptor activation by imaging – image-based, set 3, SAR follow-up (AID 488833); assay type: functional
[27] = target: Mu-type opioid receptor (Homo sapiens, UniProt P35372); assay: SAR Analysis of Agonists of the MOR Receptor using an Image-Based Assay - Set 3. [Related pubchem assays (depositor defined):AID1777, AID1785, AID1786, AID1966, AID2133, AID2136, AID2284, AID2285, AID2352]; assay type: functional
[28] = target: Delta-type opioid receptor (Homo sapiens, UniProt P41143); assay: SAR Analysis of Agonists of the DOR Receptor using an Image-Based Assay - Set 3. [Related pubchem assays (depositor defined):AID1777, AID1786]; assay type: functional
Sequence of Delta-type opioid receptor (P41143 whole entry): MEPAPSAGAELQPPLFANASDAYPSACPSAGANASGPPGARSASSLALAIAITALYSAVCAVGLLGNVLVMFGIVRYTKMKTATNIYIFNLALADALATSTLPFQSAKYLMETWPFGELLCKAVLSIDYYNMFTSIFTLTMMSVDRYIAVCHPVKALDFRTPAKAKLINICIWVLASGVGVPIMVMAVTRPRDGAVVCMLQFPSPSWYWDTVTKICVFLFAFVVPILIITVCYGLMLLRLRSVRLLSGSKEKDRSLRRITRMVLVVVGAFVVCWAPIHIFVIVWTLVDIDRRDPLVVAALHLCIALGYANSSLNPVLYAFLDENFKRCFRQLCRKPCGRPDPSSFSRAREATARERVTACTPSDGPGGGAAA

T6 sequence (P41145 whole entry): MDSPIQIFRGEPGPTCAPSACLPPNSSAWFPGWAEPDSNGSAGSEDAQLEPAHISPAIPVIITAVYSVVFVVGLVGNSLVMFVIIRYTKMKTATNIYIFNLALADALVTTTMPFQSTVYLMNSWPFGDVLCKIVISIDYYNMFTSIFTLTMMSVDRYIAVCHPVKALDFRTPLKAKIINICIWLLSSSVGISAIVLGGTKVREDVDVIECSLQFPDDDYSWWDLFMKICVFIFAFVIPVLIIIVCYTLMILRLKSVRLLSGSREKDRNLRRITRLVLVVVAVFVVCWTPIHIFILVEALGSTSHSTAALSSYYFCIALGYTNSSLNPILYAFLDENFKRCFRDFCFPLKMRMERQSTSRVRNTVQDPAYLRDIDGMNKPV
Sequence of Trypsin (P00761 whole entry): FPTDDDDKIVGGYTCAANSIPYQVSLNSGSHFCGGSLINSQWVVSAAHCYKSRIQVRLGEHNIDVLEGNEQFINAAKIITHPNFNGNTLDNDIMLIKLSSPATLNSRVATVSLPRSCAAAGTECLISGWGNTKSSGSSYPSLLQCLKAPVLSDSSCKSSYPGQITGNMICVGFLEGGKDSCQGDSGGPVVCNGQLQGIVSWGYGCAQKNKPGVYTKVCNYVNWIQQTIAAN
Sequence of Mu-type opioid receptor (P35372 whole entry): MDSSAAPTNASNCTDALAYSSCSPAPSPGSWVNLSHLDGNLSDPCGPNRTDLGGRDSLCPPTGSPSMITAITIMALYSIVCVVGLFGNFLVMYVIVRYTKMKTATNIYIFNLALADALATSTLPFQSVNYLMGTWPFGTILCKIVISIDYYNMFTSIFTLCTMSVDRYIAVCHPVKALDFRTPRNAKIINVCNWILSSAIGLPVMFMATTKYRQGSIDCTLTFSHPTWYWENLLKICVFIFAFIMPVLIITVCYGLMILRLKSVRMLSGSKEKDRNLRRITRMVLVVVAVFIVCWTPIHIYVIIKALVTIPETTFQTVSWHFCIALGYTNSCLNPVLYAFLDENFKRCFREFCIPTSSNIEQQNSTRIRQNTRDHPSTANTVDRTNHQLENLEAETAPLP
Sequence of CAAX prenyl protease 2 (Q03530 whole entry): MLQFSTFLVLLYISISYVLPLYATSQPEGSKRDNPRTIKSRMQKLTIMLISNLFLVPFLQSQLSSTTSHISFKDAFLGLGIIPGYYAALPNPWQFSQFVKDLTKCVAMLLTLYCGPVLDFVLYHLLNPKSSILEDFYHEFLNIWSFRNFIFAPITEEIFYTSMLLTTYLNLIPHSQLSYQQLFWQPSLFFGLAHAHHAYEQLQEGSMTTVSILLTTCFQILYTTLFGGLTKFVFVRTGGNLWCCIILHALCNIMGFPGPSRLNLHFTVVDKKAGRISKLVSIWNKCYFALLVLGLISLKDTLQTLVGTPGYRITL
Sequence of Tumor necrosis factor (P01375 whole entry, the tested form may be a part): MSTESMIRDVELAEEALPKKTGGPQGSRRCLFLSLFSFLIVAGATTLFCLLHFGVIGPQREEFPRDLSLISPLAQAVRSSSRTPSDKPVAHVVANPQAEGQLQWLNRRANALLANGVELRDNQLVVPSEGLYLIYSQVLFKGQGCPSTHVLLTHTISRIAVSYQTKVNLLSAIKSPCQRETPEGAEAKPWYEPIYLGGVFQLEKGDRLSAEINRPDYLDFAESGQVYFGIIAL
Sequence of Nucleotide-binding oligomerization domain-containing protein 2 (Q9HC29 whole entry, the tested form may be a part): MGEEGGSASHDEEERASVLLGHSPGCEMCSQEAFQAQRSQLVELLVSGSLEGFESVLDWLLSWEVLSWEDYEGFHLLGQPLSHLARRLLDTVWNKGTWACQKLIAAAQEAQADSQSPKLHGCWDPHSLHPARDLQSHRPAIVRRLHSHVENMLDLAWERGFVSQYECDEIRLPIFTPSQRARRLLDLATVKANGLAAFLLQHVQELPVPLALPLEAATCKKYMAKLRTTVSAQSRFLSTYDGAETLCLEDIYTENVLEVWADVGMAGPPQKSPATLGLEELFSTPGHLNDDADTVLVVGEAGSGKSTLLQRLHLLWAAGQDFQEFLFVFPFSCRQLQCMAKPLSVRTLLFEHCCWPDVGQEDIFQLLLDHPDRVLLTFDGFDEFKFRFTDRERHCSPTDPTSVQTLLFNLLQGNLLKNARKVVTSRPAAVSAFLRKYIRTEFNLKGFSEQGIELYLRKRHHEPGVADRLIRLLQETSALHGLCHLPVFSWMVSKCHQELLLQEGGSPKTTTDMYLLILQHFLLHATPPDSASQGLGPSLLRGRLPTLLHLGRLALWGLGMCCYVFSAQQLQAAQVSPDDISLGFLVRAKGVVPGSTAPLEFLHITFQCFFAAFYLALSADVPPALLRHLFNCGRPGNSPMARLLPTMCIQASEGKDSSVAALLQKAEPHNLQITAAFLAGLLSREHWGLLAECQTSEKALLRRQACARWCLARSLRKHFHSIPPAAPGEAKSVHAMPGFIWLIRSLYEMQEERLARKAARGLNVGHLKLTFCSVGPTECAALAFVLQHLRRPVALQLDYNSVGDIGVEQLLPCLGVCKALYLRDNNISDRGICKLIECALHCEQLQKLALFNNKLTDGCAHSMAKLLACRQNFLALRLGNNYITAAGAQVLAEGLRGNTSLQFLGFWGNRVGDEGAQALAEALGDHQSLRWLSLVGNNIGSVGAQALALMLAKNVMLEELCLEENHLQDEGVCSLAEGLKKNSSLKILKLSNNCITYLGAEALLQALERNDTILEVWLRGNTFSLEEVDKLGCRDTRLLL
Sequence of G-protein coupled receptor 35 (Q9HC97 whole entry): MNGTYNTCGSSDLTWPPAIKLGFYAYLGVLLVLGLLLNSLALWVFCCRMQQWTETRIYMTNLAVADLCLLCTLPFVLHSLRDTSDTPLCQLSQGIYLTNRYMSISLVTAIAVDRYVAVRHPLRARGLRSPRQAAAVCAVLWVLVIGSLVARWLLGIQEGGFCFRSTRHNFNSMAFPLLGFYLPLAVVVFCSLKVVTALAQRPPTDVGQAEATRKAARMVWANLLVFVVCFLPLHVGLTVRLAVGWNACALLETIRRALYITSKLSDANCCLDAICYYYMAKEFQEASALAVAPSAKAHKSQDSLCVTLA
Sequence of Nonstructural protein 1 (Q194T2 whole entry): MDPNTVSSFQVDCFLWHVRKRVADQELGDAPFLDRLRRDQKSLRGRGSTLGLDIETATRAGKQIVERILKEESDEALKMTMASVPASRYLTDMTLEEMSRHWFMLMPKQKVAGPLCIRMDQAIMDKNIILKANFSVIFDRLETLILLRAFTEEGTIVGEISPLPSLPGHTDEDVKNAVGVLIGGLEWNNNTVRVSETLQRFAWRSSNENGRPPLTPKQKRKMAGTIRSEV
Sequence of Hexokinase HKDC1 (Q2TB90 whole entry): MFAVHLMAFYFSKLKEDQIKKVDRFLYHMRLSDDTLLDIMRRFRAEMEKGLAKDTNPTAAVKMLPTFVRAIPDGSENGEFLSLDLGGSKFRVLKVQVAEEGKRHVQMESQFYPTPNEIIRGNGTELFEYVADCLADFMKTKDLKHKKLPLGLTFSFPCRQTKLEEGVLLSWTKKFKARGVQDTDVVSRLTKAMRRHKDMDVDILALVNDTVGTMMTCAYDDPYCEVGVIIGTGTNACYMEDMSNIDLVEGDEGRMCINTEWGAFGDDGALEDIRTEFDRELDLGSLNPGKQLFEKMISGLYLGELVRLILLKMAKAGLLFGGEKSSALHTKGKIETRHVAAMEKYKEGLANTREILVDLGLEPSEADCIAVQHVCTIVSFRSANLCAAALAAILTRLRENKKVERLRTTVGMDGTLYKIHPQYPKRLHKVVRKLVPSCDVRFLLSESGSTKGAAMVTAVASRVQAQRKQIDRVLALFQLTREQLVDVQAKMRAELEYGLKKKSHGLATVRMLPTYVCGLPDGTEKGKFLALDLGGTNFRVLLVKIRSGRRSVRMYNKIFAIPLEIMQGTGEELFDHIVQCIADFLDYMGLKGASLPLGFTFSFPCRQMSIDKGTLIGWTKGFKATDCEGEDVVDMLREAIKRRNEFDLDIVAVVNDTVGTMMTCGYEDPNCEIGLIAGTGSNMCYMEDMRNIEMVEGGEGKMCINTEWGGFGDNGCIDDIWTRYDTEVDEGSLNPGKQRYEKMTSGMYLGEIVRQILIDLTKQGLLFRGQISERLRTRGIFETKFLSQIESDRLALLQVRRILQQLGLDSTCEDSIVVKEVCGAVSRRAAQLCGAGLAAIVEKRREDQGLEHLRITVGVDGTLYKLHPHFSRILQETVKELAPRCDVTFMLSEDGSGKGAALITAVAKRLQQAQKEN
Sequence of G-protein coupled receptor 55 (Q9Y2T6 whole entry): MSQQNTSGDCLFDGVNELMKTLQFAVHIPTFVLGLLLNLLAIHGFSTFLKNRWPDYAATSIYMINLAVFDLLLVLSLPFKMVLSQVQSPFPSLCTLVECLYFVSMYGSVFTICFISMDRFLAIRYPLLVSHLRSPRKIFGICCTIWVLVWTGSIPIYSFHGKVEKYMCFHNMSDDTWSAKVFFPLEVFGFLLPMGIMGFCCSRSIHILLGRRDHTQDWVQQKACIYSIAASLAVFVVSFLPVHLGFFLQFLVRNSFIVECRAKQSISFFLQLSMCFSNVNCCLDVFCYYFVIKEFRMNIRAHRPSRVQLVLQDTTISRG

SMILES: CCN1CCN(Cc2cc(Br)ccc2O)CC1
- EC50 [1]: 0.21 µM (active)

SMILES: C=CCN(c1ccccc1OC)S(=O)(=O)c1ccc(Cl)c(C(=O)Nc2ccc(N3CCOCC3)cc2)c1
- EC50 [2]: 12 µM (active)
- IC50 [3]: > 20 µM (inactive)
- IC50 [4]: 13.2 µM (active)
- IC50 [5]: 14 µM (active)
- IC50 [6]: 14.4 µM (inactive)
- IC50 [7]: 10.4 µM (active)
- IC50 [8]: > 20 µM (inactive)
- IC50 [9]: > 20 µM (inactive)

SMILES: Cc1cccc(Cn2c(N3CCN(c4ccccc4)CC3)nc3c2c(=O)n(C)c(=O)n3C)c1
- EC50 [1]: 0.84 µM (active)
- CC50 [10]: > 40 µM (active)

SMILES: CCCc1cc(O)n2nc(C)c(-c3ccccc3)c2n1
- AC50 [11]: 22.3 µM (active)
- Ki [12]: > 66.7 µM (inactive)
- AC50 [13]: 5.36 µM (active)
- IC50 [14]: 46.5 µM (active)

SMILES: COc1ccc2cc(C(=O)C3CCCN(C(=O)CCc4cnn(C)c4)C3)ccc2c1 (centres undefined)
- AC50 [11]: 19.5 µM (active)
- AC50 [13]: 11.5 µM (active)

SMILES: Cc1ccc(-n2c3nc(=O)[nH]c(=O)c-3cc3cc([N+](=O)[O-])ccc32)cc1C
- IC50 [15]: 6.47 µM (active)
- CC50 [16]: 29.7 µM (active)
- EC50 [17]: 10 µM (active)
- IC50 [18]: 65.1 µM (active)

SMILES: CN(C)/C=C/C=C/C=C/C1=[N+](C)c2ccccc2C1(C)C
- IC50 [19]: 1.82 µM (active)
- EC50 [20]: > 99 µM (inactive)
- IC50 [21]: 27.8 µM (active)
- IC50 [22]: 5.75 µM (active)
- EC50 [23]: 89.5 µM (inactive)
- IC50 [24]: 2.05 µM (active)

SMILES: Cc1ccccc1CSc1nnc(-c2ccccn2)n1Cc1ccco1
- EC50 [25]: 17.7 µM (inactive)
- EC50 [26]: 28.7 µM (inactive)
- EC50 [27]: > 32 µM (inactive)
- EC50 [28]: > 64 µM (inactive)

SMILES: O=C(Nc1nc2ccccc2n1Cc1ccc(Cl)cc1)c1cccs1
- IC50 [3]: > 20 µM (inactive)
- IC50 [4]: > 20 µM (inactive)
- IC50 [5]: > 20 µM (inactive)
- IC50 [7]: > 20 µM (inactive)

SMILES: Cc1c(CSc2nnc(-c3ccccn3)n2Cc2cccs2)cccc1[N+](=O)[O-]
- EC50 [25]: 5.82 µM (active)
- EC50 [26]: 4.15 µM (active)
- EC50 [27]: > 32 µM (inactive)
- EC50 [28]: > 32 µM (inactive)
